Laboratory results taken from patent US20250031733A1, “Mint Flavor Compositions” (The Procter & Gamble Company, priority 2020, published 2025).

Key:
[1] = Expert sensory testing of racemic menthol vs (−)-menthol in toothpaste (CREST Cavity) with standard spearmint flavor; type: in vivo
Experimental: In separate, unpublished internal experiments, perceptual experiences of racemic menthol are quantified via expert sensory testing. The use of a standard spearmint flavor (minimizing extra menthol contribution) compared racemic menthol to (−)-menthol in a toothpaste formulation (CREST Cavity). There are several sensory observations taken from these experiments. […] These aromatic notes appear during brushing and disappear after 5-10 minutes post expectoration and are more pronounced as concentrations increase.

[2] = Comparison of cooling attributes of (−)-menthol and racemic menthol in toothpaste (Crest Cavity formulation); type: in vivo
Source text: The following data helps support the use of racemic menthol to reduce costs of mint flavor compositions herein described. From internal unpublished research, Table B compares replacing (−)-menthol with a racemic menthol in a 1:1 in a toothpaste formulation. Such a direct replacement is not preferred given the reduced cooling profile and olfactory differences; however, a portion of L-menthol is preferably replaced by racemic-menthol to gain cost efficiency while minimizing impact to the overall mint flavor profiles.
This value represents the concentration of a coolant where 50% of its maximal cooling is observed.

CC1CCC(C(C)C)C(O)C1 (racemic) [Racemic Menthol]
less potent than (−)-menthol for cooling [1]: 25-30%
Potency compared to L-Menthol [2]: ~0.65-0.7x
Time Point at Maximum Cooling [2]: ~1 min
Maximum Cooling (0-60 scale) ([2]; 60 = greatest amount of cooling, 0 = least): 35
EC 50 ([2]; concentration of coolant where 50% of maximal cooling is observed): 1,250 to 1,500 parts per million
Maximum Longevity ([2]; cooling): Up to 20 minutes
